In one assay the test system is mouse vas deferens. Description: mouse vas deferens test (MVD). The format is cell-based. The following applies: inhibition of contractions in mouse vas deferens preparation in vitro, active at 5.0 μM or less. The source says:
(§1) Med. Assoc. 217, 1392 (1971)]. […] Opth 7, 921-923 (1975); Green and Pederson, Effect of delta-9 Tetrahydrocannabinol on Aqueous Dynamics and Ciliary Body Permeability in the Rabbit Eye., Exptl. Eye Research 15, 499-507 (1973); Colasanti, Craig and Allara, Intraocular Pressure, Ocular Toxicity and Neurotoxicity after Administration of Cannabinol or Cannibigerol, Exptl. Eye Research 39, 252-259 (1984)]. Similarly, synthetic cannabinoids also reduce intraocular pressure [Green, Symunds, Oliver and Elijah, Intraocular Pressure Following Systemic Administration of Cannabinoids, Curr. Eye Research 2, 247-253 (1982); Tiedeman, Shields, Weber, Crow, Coccetto, Harris and Howes, Ophthalmology., 88, 270-277 (1981); Colasanti et al., supra]. Cannabinoid receptor binding sites can be defined as those to which radio-labelled 4-(1,1-dimethylheptyl)-2,3'-dihydroxy-6'alpha-(3-hydroxypropyl)-1',2',3',4',5',6'-hexahydrobiphenyl (CP 55940) binds in a specific and saturable manner, and the binding sites are heterogeneously distributed in the brain [Devane, Dysarz, Johnson, Melvin and Howlett, Determination and Characterization of a Cannabinoid Receptor in Rat Brain, Molecular Pharm. 34, 605-613 (1988)]. Natural and synthetic cannabinoids and representative examples of the compounds of the present invention bind to CP 55940 binding sites. […] It is believed that agonist activity at the cannabinoid receptor mediates the anti-glaucoma actions of cannabinoids, and that agonist activity at this receptor correlates with ocular pressure lowering actions in man.

Assay [1] deals with T1, cannabinoid receptor (CP 55940 binding sites) (Rattus norvegicus, UniProt P20272).
T1 construct: from tissue
Nature of the assay: CP55490 binding assay (CP). Particulars: for inhibition at 1 µM: read-out: CP % I; for IC50: CP55490 binding assay.
From the text: as §1

A further assay deals with intraocular pressure. Particulars: topical application or systemic injection; cited from earlier work.

A value given as a limit tells only on which side of the number the result lay.

The text below walks through data of patent US4973587A, “3-arylcarbonyl-1-aminoalkyl-1H-indole-containing antiglaucoma method” (Sterling Drug Inc., priority 1990, dated 1990).

T1 sequence (P20272 whole entry): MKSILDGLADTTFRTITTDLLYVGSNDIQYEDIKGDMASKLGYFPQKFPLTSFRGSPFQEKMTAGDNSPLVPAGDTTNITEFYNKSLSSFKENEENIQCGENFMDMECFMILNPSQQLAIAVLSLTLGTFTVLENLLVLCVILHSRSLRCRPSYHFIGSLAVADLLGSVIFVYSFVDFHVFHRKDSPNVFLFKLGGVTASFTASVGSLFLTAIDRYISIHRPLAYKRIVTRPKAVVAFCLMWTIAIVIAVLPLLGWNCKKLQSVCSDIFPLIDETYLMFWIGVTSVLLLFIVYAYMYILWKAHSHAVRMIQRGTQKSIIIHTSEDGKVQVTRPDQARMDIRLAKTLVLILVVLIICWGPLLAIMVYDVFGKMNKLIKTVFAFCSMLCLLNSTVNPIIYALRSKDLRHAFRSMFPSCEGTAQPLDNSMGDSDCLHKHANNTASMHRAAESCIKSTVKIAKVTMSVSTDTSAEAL

Turning to `COc1ccc(C(=O)c2cn(CCN3CCOCC3)c3ccccc23)cc1` [Example 1A, 3-(4-methoxybenzoyl)-1-[2-(4-morpholinyl)ethyl]1H-indole methanesulfonate monohydrate], in the assay with mouse vas deferens (Mus musculus), inhibition was half-maximal at 100 nM (IC50). The inhibition at 1 µM in assay [1] was found to be 59%.
`Cc1c(C(=O)c2cccc3ccccc23)c2ccccc2n1CCN1CCOCC1` [Example 1AP]: the IC50 came out at 15 nM in the assay on mouse vas deferens (Mus musculus) and 51 nM in assay [1].
On to `COc1ccc(C(=O)c2c(C)n(CCN3CCOCC3)c3ccccc23)cc1` [Example 1B], for which the figures for the IC50 (with mouse vas deferens; in assay [1]) were 500 nM and 3000 to 10000 nM, respectively.
In the case of `COc1ccc(C(=O)c2c(C)n(CCN3CCOCC3)c3ccccc23)c(OC)c1OC` [Example 1CA], 70 nM corresponded to half-maximal inhibition in the assay with mouse vas deferens (Mus musculus) (IC50). The inhibition at 1 µM in assay [1] stood at 70%.
Take `Cc1c(C(=O)c2csc3ccccc23)c2ccccc2n1CCN1CCOCC1` [Example 1Q]: the IC50 in the assay on mouse vas deferens (Mus musculus) is 18 nM; in assay [1], ~50 nM.
In the same order, the values of `O=C(c1cccc2ccccc12)c1cn(CCN2CCOCC2)c2ccccc12` [Example 2Z] are 6 nM and 88 nM.
Take `COc1ccc(C(=O)c2c(C)n(CCN3CCCC(O)C3)c3ccccc23)cc1` (centres unmarked) [Example 3B]: the IC50 with mouse vas deferens (Mus musculus) is > 10000 nM.
As for `Cc1c(C(=O)c2cccc3ccccc23)c2ccccc2n1CCN1CCCC(O)C1` (centres unmarked) [Example 3D], the values for the IC50 (with mouse vas deferens (Mus musculus); in assay [1]) were 236 nM and 200 to 500 nM, respectively.
In the case of `Cc1c(C(=O)c2cccc3ccccc23)c2ccccc2n1CCN1CCOC(C)C1` (centres unmarked) [Example 3E], the midpoint of inhibition in the assay on mouse vas deferens (Mus musculus), the IC50, lay at 210 nM. In other words, the sub-micromolar range.
The same measure, in the same setting: then `CCN(CC)CCCn1c(C)c(C(=O)c2ccc(OC)cc2)c2ccccc21` [Example 3J], with > 10000 nM.
Same read-out and setting: then `Cc1c(C(=O)c2cccc3ccccc23)c2ccccc2n1CCN1CCOCC1C` (centres unmarked) [Example 3K], with 30 nM.
For `Cc1c(C(=O)c2cccc(N)c2)c2ccccc2n1CCN1CCOCC1` [Example 4A, 2-methyl-3-(3-aminobenzoyl)-1-[2 (4-morpholinyl)ethyl]-1H-indole], the IC50 in the assay with mouse vas deferens (Mus musculus) was 700 nM.
The same measure, in the same setting: then `Cc1c(C(=O)c2ccc(N)cc2)c2ccccc2n1CCN1CCOCC1` [Example 4B, 2-methyl-3-(4-aminobenzoyl)-1-[2-(4morpholinyl)ethyl]-1H-indole], with 520 nM; and `Cc1c(C(=O)c2cccc(O)c2O)c2ccccc2n1CCN1CCOCC1` [Example 5A, 2-methyl-3-(2,3-dihydroxybenzoyl)-1-[2-(4-morpholinyl)ethyl]-1H-indole], with 180 nM; and `O=C(c1cccc2ccccc12)c1cn(CCN2CCOCC2)c2ccc(O)cc12` [Example 5B, 5-hydroxy-3-(1-naphthylcarbonyl)-1-[2-(4-morpholinyl)ethyl]-1H-indole], with 20 nM.
The same measure, in the same setting: then `COc1ccc(C(=O)c2cn(CCN3CCOCC3)c3c(O)cccc23)cc1` [Example 5C, 7-hydroxy-3-(4-methoxybenzoyl)-1-[2-(4-morpholinyl)ethyl]-1H-indole], with 400 nM.
Same read-out and setting: then `Cc1c(C(=O)c2ccc(C#N)c3ccccc23)c2ccccc2n1CCN1CCOCC1` [Example 7A, 2-methyl-3-(4-cyano-1-naphthylcarbonyl)-1-[2-(4-morpholinyl)ethyl]-1H-indole], with 14 nM.
With `Cc1c(C(=O)c2ccc(-n3ccnc3)c3ccccc23)c2ccccc2n1CCN1CCOCC1` [Example 7B], in the assay with mouse vas deferens (Mus musculus), 5 nM corresponded to half-maximal inhibition (IC50).
Take `O=C(c1ccc(-n2ccnc2)c2ccccc12)c1cn(CCN2CCOCC2)c2ccccc12` [Example 7C]: the IC50 with mouse vas deferens (Mus musculus) came to 8 nM.
On the same count and under the same terms, then `N#Cc1ccc(C(=O)c2cn(CCN3CCOCC3)c3ccccc23)c2ccccc12` [Example 7D], with 5 nM; and `COc1ccc(C(=S)c2c(C)n(CCN3CCOCC3)c3ccccc23)cc1` [Example 9, 2-methyl-3-(4-methoxyphenylthiocarbonyl)-1-[2-(4-morpholinyl)-ethyl]-1H-indole], with 110 nM.
Consider `CCCCCc1cc(O)c2c(c1)OC(C)(C)[C@@H]1CCC(C)=C[C@@H]21` [delta-9 tetrahydrocannabinol], for which the intraocular pressure result with intraocular pressure is given as “reduces intraocular pressure”.

A word on the IC50: it is the concentration that inhibits the measured activity by half. Lower therefore signals higher potency.
